Assays:
TNFα [1] = assay: In vitro test procedure using PBMCs, LPS-stimulated, TNFα by ELISA; assay type: cell-based; settings: Homo sapiens, PBMC; for inhibition at 10 µM / inhibition at 1 µM: 4 h, read-out: TNFα percentage inhibition; for inhibition at 10 µM: at 10 μmol; for inhibition at 1 µM: at 1 μmol
Procedure: (§1) In vitro Test Procedure Using PBMCs
(§2) The mononuclear cells (PBMCs) are isolated from human potassium-EDTA whole blood diluted 1:3 by means of density gradient centrifugation (Histopaque®-1.077). After 2 washing steps with DPBS buffer, the mononuclear cells are resuspended in macrophage-SFM medium and adjusted to a cell count of 1×10^6 cells/ml.
(§3) The PBMCs suspension (at 390 μl) is preincubated with test substance for 15 min at 37° C. in a CO2 incubator (5% CO2; 95% moisture-saturated air). The samples are subsequently stimulated for 4 hours with 1 μg/ml LPS (E.coli 026:B6) at 37° C. in a CO2 incubator (5% CO2, 95% moisture-saturated air). The reaction is ended by placing the samples on ice, addition of DPBS buffer and centrifugation (15880×g; 12 min). The supernatant is used for the quantification of IL-1β and TNFα by means of ELISA.

IL-1β [2] = assay: In vitro test procedure using PBMCs, LPS-stimulated, IL-1β by ELISA; assay type: cell-based; settings: Homo sapiens, PBMC; for inhibition at 10 µM / inhibition at 1 µM: 4 h, read-out: IL-1β percentage inhibition; for inhibition at 10 µM: at 10 μmol; for inhibition at 1 µM: at 1 μmol
Procedure: as §1, §2, §3

IL-1β [3] = assay: In vitro test procedure using human whole blood, LPS-stimulated, IL-1β by ELISA; assay type: cell-based; settings: whole-blood method; for IC50: Homo sapiens
Procedure: (§4) In vitro Test Procedure Using Human Whole Blood
(§5) Human potassium-EDTA whole blood (at 400 μl) is preincubated with test substance for 15 min. at 37° C. in a CO2 incubator (5% CO2; 95% moisture-saturated air). The samples are then stimulated for 4 hours with 1 μg/ml of LPS (E. coli 026:B6) at 37° C. in a CO2 incubator (5% CO2; 95% moisture-saturated air). The reaction is ended by placing the samples on ice, addition of DPBS buffer and subsequent centrifugation (1000×g; 15 min). The plasma supernatant is used for the quantification of IL-1β and TNFα by means of ELISA.

TNFα [4] = assay: In vitro test procedure using human whole blood, LPS-stimulated, TNFα by ELISA; assay type: cell-based; settings: whole-blood method; for IC50: Homo sapiens
Procedure: as §4, §5

5-lipoxygenase = target: T1, 5-lipoxygenase (Homo sapiens, UniProt P09917); assay: In vitro test system for determining the inhibition of 5-lipoxygenase (LTB4 from human granulocytes, A 23187, ELISA); assay type: cell-based; settings: for IC50: human granulocytes, read-out: 5-LO IC50
T1 construct: Human granulocytes are used as a source of the 5-lipoxygenase; endogenous in cells; host or cells: human granulocytes isolated from heparinised blood on a Percoll gradient
T1 sequence (P09917 1-674): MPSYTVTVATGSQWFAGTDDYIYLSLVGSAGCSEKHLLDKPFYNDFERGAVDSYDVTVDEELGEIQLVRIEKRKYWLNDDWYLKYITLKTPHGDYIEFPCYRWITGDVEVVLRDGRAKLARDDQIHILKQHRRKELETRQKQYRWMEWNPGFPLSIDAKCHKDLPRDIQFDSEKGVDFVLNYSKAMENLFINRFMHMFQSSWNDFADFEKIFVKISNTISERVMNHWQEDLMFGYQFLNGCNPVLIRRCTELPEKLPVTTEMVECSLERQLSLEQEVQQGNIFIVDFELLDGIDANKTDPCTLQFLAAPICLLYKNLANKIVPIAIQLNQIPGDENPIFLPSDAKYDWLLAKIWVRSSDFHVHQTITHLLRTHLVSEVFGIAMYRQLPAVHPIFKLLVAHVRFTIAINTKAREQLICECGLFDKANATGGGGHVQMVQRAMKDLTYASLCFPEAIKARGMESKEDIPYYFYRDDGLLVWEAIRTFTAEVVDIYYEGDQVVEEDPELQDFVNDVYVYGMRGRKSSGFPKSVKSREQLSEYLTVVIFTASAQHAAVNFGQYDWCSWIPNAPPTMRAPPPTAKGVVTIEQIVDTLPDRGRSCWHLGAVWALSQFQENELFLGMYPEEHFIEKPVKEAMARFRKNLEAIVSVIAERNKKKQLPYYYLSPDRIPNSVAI
Procedure: In vitro Test System for Determining the Inhibition of 5-lipoxygenase
Human granulocytes are used as a source of the 5-lipoxygenase. LTB4 (leukotriene B4) is formed from endogenous arachidonic acid by means of stimulation with calcium ionophore A 23187. The granulocytes are isolated and the enzyme reaction is carried out according to known processes (see Arch. Pharm. Pharm. Med. Chem. 330, 307-312 (1997)).
The blood, which is protected from clotting with heparin, is centrifuged on a discontinuous Percoll® gradient and the granulocyte layer is pipetted off. After lysis of the erythrocytes, the granulocytes are washed a number of times and then adjusted to a specific cell count. The enzyme reaction is then started with calcium ionophore A 23187 in the presence or absence of the test substance after addition of Ca2+. The synthesis of the leukotrienes is stopped after 1.5 minutes. The samples are centrifuged off and the supernatant is diluted. LTB4 is determined quantitatively by means of ELISA.

[5] = target: T2, COX2 (from sheep placenta) (Ovis aries, UniProt P79208); assay: In vitro test system for determining the inhibition of cyclooxygenase-2 (COX2 from sheep placenta, PGE2 ELISA); assay type: biochemical; settings: read-out: COX-2 IC50
T2 construct: COX2 (from sheep placenta) is preincubated at 4° C. with test substance for 10 min; from tissue; host or cells: sheep placenta
T2 sequence (P79208 17-603): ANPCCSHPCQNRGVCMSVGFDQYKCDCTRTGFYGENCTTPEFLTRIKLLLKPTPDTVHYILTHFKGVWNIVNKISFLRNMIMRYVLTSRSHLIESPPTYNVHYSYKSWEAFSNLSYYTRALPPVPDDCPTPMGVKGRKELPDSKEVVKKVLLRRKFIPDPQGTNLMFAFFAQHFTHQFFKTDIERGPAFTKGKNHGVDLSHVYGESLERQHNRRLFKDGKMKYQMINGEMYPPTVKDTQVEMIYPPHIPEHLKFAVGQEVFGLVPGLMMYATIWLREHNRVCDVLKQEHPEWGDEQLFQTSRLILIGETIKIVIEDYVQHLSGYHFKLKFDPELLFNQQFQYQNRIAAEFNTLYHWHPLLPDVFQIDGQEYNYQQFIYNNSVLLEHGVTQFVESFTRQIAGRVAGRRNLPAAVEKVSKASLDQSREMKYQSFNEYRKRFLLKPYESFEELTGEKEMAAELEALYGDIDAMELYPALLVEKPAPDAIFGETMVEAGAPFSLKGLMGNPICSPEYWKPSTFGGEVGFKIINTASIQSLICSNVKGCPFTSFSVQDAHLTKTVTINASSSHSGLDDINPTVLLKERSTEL
Procedure: In vitro Test System for Determining the Inhibition of Cyclooxygenase-2
COX2 (from sheep placenta) is preincubated at 4° C. with test substance for 10 min, then stimulated with arachidonic acid (5 μM) at 25° C. for 10 min. […] The determination is carried out at 3 dilutions (10^−7, 10^−6, 10^−5 M). The PGE2 concentrations are quantified by means of ELISA (see Mitchell J. A. et al., Proc. Nat. Acad. Sci. 90: 11693-11697 (1993)).

cyclooxygenase-1 = target: T3, cyclooxygenase-1 (Homo sapiens, UniProt P23219); assay: In vitro test system for determining the inhibition of cyclooxygenase-1 (PGE2 from human platelets, calcium ionophore, ELISA); assay type: cell-based; settings: for COX-1 percentage inhibition: at 10 μmol; for IC50: human platelets, read-out: COX-1 IC50
T3 construct: endogenous in cells; host or cells: human platelets isolated on a discontinuous Percoll gradient
T3 sequence (P23219 24-599): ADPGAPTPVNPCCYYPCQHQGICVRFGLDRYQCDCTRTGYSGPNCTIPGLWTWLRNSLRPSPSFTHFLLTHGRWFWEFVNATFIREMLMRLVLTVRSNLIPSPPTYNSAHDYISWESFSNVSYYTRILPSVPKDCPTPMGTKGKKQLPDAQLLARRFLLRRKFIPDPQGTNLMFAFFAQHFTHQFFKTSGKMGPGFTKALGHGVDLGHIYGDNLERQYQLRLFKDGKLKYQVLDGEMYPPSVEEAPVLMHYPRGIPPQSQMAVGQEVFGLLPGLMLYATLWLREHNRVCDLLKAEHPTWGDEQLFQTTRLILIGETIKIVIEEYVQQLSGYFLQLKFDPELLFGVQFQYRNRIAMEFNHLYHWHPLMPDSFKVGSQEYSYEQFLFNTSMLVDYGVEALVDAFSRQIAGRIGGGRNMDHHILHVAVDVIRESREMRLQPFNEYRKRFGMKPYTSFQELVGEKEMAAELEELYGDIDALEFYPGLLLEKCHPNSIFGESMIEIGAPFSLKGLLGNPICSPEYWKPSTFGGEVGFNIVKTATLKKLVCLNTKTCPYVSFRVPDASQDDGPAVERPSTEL
Procedure: In vitro Test System for Determining the Inhibition of Cyclooxygenase-1
In this test system, the amount of prostaglandin E2 formed from human platelets after addition of calcium ionophore is determined by means of ELISA. In this process, the platelets are obtained after centrifugation on a discontinuous Percoll® gradient. The enzyme reaction and the determination of the metabolites formed is carried out in principle as in the determination of 5-lipoxygenase inhibition. Differences exist with respect to the incubation time. Furthermore, the addition of a thromboxane synthesis inhibitor is necessary (see Arch. Pharm. Pharm. Med. Chem. 330, 307-312 (1997)).

Row | IC50 (IL-1β [3]) | IC50 (TNFα [4]) | IC50 (TNFα [1]) | IC50 (5-lipoxygenase) | COX-1 percentage inhibition (cyclooxygenase-1) | Structure (SMILES) | inhibition at 10 µM (TNFα [1]) | inhibition at 10 µM (IL-1β [2]) | other results
1 | 30 µM | 30 µM |  |  |  | CCOC(=O)c1c(-c2ccncc2)c(-c2ccc(F)cc2)n2c1CCC2 [Example 1A, Ethyl 3-(4-fluorophenyl)-2-(4-pyridyl)-6,7-dihydro-5H-pyrrolizine-1-carboxylate] | 13% | 21% | 
2 |  |  | 1.4 µM | 2 µM |  | CCOC(=O)c1c(-c2ccncc2)c2n(c1-c1ccc(F)cc1)CCC2 [Example 1B, Ethyl 3-(4-fluorophenyl)-1-(4-pyridyl)-6,7-dihydro-5H-pyrrolizine-2-carboxylate] | 60% |  | inhibition at 1 µM (TNFα [1]): 12%; IC50 (IL-1β [2]): 1.4 µM
3 | 22 µM | 38 µM |  | 1.3 µM | 10/11% | CCOC(=O)c1c(-c2ccncc2)c(-c2ccc(Cl)s2)n2c1CCC2 [Example 9A, Ethyl 3-(5-chloro-2-thienyl)-2-(4-pyridyl)-6,7-dihydro-5H-pyrrolizine-1-carboxylate] | 38% | 47% | 
4 |  |  |  | 2.05 µM |  | CCOC(=O)c1c(-c2ccc(F)cc2)c(-c2ccncc2)n2c1CCC2 [Example 19A, Ethyl 2-(4-fluorophenyl)-3-(4-pyridyl)-6,7-dihydro-5H-pyrrolizine-1-carboxylate] | 60% | 21% | inhibition at 1 µM (TNFα [1]): 0%; IC50 (cyclooxygenase-1): 2.9 µM; inhibition at 1 µM (IL-1β [2]): 0%; IC50 [5]: 5.5 µM

Continued, compound first:

Row | Structure (SMILES) | IC50 (IL-1β [3]) | IC50 (TNFα [4]) | IC50 (TNFα [1]) | IC50 (5-lipoxygenase) | COX-1 percentage inhibition (cyclooxygenase-1) | inhibition at 10 µM (TNFα [1]) | inhibition at 10 µM (IL-1β [2]) | other results
5 | O=C(O)c1c(-c2ccncc2)c(-c2ccc(F)cc2)n2c1CCC2 [Example 2, 3-(4-Fluorophenyl)-2-(4-pyridyl)-6,7-dihydro-5H-pyrrolizine-1-carboxylic acid] | 2.9 µM | 16 µM |  |  |  | 37% | 17% | 
6 | Fc1ccc(-c2c(-c3ccncc3)cc3n2CCC3)cc1 [Example 5, 5-(4-Fluorophenyl)-6-(4-pyridyl)-2,3-dihydro-1H-pyrrolizine] |  |  | 1.4 µM | 0.027 µM |  | 88% |  | inhibition at 1 µM (TNFα [1]): 44%; IC50 [5]: 5.8 µM
7 | O=C(O)c1c(-c2ccncc2)c(-c2cccs2)n2c1CCC2 [Example 7, 3-(2-Thienyl)-2-(4-pyridyl)-6,7-dihydro-5H-pyrrolizine-1-carboxylic acid] | 52 µM | 48 µM |  |  | 10/40% |  |  | 
8 | O=C(O)c1c(-c2ccncc2)c(-c2ccc(F)cc2)n2c1SCC2 [Example 11, 5-(4-Fluorophenyl)-6-(4-pyridyl)-2,3-dihydro-pyrrole-[2,1-b]-thiazole-7-carboxylic acid] |  |  | 6.8 µM |  | 10/33% |  |  | 5-LO percentage inhibition (5-lipoxygenase; at 10 μmol): 10/30%; IC50 (IL-1β [2]): 2.3 µM; IL-1β percentage inhibition (IL-1β [3]; at 100 μmol): 45%; TNFα percentage inhibition (TNFα [4]; at 100 μmol): 45%
9 | OCc1c(-c2ccncc2)c(-c2ccc(F)cc2)n2c1SCC2 [Example 12, [5-(4-Fluorophenyl)-6-(4-pyridyl)-2,3-dihydro-pyrrolo-[2,1-b]-thiazol-7-yl]methanol] | 76 µM | 45 µM |  |  |  | 44% |  | IC50 (IL-1β [2]): 7.6 µM
10 | Cc1c(-c2ccncc2)c(-c2ccc(F)cc2)n2c1SCC2 [Example 13, 5-(4-Fluorophenyl)-7-methyl-6-pyridin-4-yl-2,3-dihydropyrrolo-[2,1-b]-thiazole] | 80 µM | 41 µM | 8.1 µM | 0.04 µM | 10/45% |  | 43% | 
11 | Fc1ccc(-c2c(-c3ccncc3)cc3n2CCS3)cc1 [Example 14, 5-(4-Fluorophenyl)-6-pyridin-4-yl-2,3-dihydro-pyrrolo-[2,1-b]-thiazole] |  |  | 7.6 µM | 2.4 µM |  |  |  | IC50 (cyclooxygenase-1): 2.3 µM; IC50 (IL-1β [2]): 8.5 µM
12 | Cc1c(-c2ccncc2)c(-c2ccc(F)cc2)n2c1CCCC2 [Example 17, 3-(4-Fluorophenyl)-1-methyl-2-(4-pyridyl)-5,6,7,8-tetrahydroindolizine] | 33 µM | 39 µM | 4 µM | 2.2 µM | 10/48% |  | 67% | inhibition at 1 µM (IL-1β [2]): 0%
13 | Fc1ccc(-c2cc3n(c2-c2ccncc2)CCC3)cc1 [Example 22, 6-(4-Fluorophenyl)-5-(4-pyridyl)-2,3-dihydro-1H-pyrrolizine] |  |  |  | 0.67 µM |  | 34% | 59% | IC50 (cyclooxygenase-1): 0.23 µM; IC50 [5]: 1.5 µM
14 | CC1(C)COc2c(-c3ccncc3)c(-c3ccc(F)cc3)cn2C1 [Example 24, 7-(4-Fluorophenyl)-3,3-dimethyl-8-pyridin-4-yl-3,4-dihydro-2H-pyrrolo[2,1-b][1,3]-oxazine] |  |  |  | 1.35 µM |  | 42% | 48% | IC50 [5]: 4 µM
15 | Fc1ccc(-c2c(-c3ccccc3)c3n(c2-c2ccncc2)CCC3)cc1 [Example 25] |  |  | 87 µM |  |  |  |  | 
